Experimental data from patent US12011441B2, “Pimobendan for the reduction of heart size and/or the delay of onset of clinical symptoms in patients with asymptomatic heart failure due to mitral valve disease” (Boehringer Ingelheim Vetmedica GmbH, priority 2016, dated 2024).

Test system: dogs with MMVD and echocardiographic and radiographic evidence of cardiomegaly
Text: Vertebral heart sum, another measure of heart size, was obtained at regular intervals—every eight months—from those animals that remained in the study. There are various ways in which this can be compared between groups. The most useful way to summarise and compare the average vertebral heart score in each group for the duration of the study is to generate an “area under the curve” value that represents a single summary statistic for each dog from which more than two measurements were obtained [Matthews J N et al., BMJ 1990, 300(6719): 230-235]. This method has been used previously in veterinary studies [Häggström J et al., J Vet Intern Med 2013, 27(6): 1441-1451].

## COc1ccc(-c2nc3ccc(C4=NNC(=O)CC4C)cc3[nH]2)cc1 (centres unmarked) [pimobendan, 4,5-dihydro-6-[2-(4-methoxyphenyl)-1H-benzimidazol-5-yl]-5-methyl-3(2H)-pyridazinone]
Average vertebral heart score over the duration of the study, placebo 11.90, P = 0.0009
  VHS Median: 11.54
Averaged over the entire duration of the study (area under the curve), dogs remaining in the study
  difference in median vertebral heart score vs placebo: approximately 0.35 vertebrae
dog, in vivo
  rate or type of potential adverse events observed: no difference between groups
  safety and tolerability: safe and well tolerated
Measured over the first 35 days of the study, P<0.0001
  heart size compared to the placebo group: reduction in heart size
